The values that follow come from paper PMC5333415, “Enhancement of scutellarin oral delivery efficacy by vitamin B12-modified amphiphilic chitosan derivatives to treat type II diabetes induced-retinopathy” (Journal of Nanobiotechnology, 2017).

A word on the Papp: it is a coefficient for how fast a substance crosses the barrier. Broadly, the Cmax is the peak of the concentration-time curve. A word on the Tmax: it is the time from dosing to the highest level.

≈ marks a conversion by molar mass, not a printed value. Read-outs that look alike come from different tables or passages of the source.

Series [1] is described as follows: Caco-2 cell permeability (AP to BL transport). In kind it is in vitro ADME, human. The note with it: human; Caco-2 monolayers, 10 μg/ml scutellarin, without IF; read-out: Papp, AP side to BL side. As for the experimental part: (§1) Caco-2 cells were seeded in 12-well transport inserts at a density of 2 × 10^5 cells/cm^2 in DMEM. Cells were maintained at 37 °C in a humidified atmosphere containing 5% CO2 for 21 days. Monolayers with transendothelial electrical resistance values above 300 Ω cm^2 were used in this study. On the day of the transport experiments, the culture medium was replaced with hank’s balanced salt solution (HBSS). Before the assay, Caco-2 cells monolayers was rinsed twice and incubated with the transport medium for an hour. After removing the transport medium, scutellarin, Chit-DC-Scu, Chit-DC-VB12-Scu (10 μg/ml scutellarin) alone or in the presence of IF ([…], 20 μl of a 100 IU/ml solution) were add to the apical side (0.5 ml) and 1.5 ml DMEM was added to the basolateral side of Transwell inserts. Cells were maintained at 37 °C in a humidified atmosphere containing 5% CO2 with orbital shaking at 50 rpm throughout the assay. At pre-determined intervals of 0, 30, 60, 90 and 120 min, 50 μl of transport buffer at the basolateral side was collected and mixed with the same volume of methanol, and an equal amount of DMEM was instantly added to the basolateral side to maintain a constant dissolution volume. The assay was performed in triplicate. Concentrations of scutellarin, Chit-DC-Scu and Chit-DC-VB12-Scu in corresponding samples were assessed by HPLC [35, 36].

A further series has as its system Caco-2 cell monolayers. Description: Caco-2 cell permeability (AP to BL transport). In kind it is in vitro ADME, human. The note with it: estimated from Papp based on the previous research. As to the method:
as §1

A further series has as its system VEGFR2. Description: Western blot of retinal homogenates, VEGFR2. The format is in vivo, Sprague–Dawley rats. The note with it: diabetic rats, 40 mg/kg/day scutellarin, 8 weeks, compared to diabetic rats treated with or without Chit-DC. As for the experimental part:
(§2) Type 2 diabetes was induced in male Sprague–Dawley rats (weighing 230–250 g, Experimental Animal Center of Sun Yat-sen University, China. Certificate No: SCXK (Q) 2011-0029). All animals were housed five per cage in a room and maintained at a constant temperature (22 °C) under a 12/12 h light/dark cycle. All procedures were carried out according to the National Institutes of Health Guide for Care and Use of Laboratory Animals and were approved by the Bioethics Committee of Sun Yat-sen University. Rats were randomly assigned to a control group, a Scu group (normal rats with 40 mg/kg/day scutellarin treatments), and five type II diabetes model groups (n = 8/group). The control and Scu groups were fed for 16 weeks on regular standard diets, while rats from type II diabetes model groups (T2D) were fed a high-fat (HFS, Guangdong Medical Laboratory Animal Center, Guangzhou, China) diet for 16 weeks that consisted of 30% from total kcal from fats, 55% from carbohydrates and 15% from protein. […] Blood glucose and body weight were monitored 3 days after the STZ or citrate buffer injection, and once a week thereafter. […]
In general terms: In western blotting, separated proteins are transferred to a membrane and probed.

In series [2] the test system is central retinal artery of type II diabetic rats. Description: Color Doppler sonography of central retinal vasculature, type 2 diabetic model. In kind it is in vivo, Sprague–Dawley rats. The note with it: 40 mg/kg/day scutellarin. As for the experimental part: Type 2 diabetes was induced in male Sprague–Dawley rats (weighing 230–250 g, Experimental Animal Center of Sun Yat-sen University, China. Certificate No: SCXK (Q) 2011-0029). All animals were housed five per cage in a room and maintained at a constant temperature (22 °C) under a 12/12 h light/dark cycle. All procedures were carried out according to the National Institutes of Health Guide for Care and Use of Laboratory Animals and were approved by the Bioethics Committee of Sun Yat-sen University. Rats were randomly assigned to a control group, a Scu group (normal rats with 40 mg/kg/day scutellarin treatments), and five type II diabetes model groups (n = 8/group). The control and Scu groups were fed for 16 weeks on regular standard diets, while rats from type II diabetes model groups (T2D) were fed a high-fat (HFS, Guangdong Medical Laboratory Animal Center, Guangzhou, China) diet for 16 weeks that consisted of 30% from total kcal from fats, 55% from carbohydrates and 15% from protein. After 8 weeks on the HFS diet, rats in the T2D groups were fasted overnight and each rat received a single intraperitoneal injection of streptozotocin (STZ, Sigma, USA) at a dose of 30 mg/kg body weight the following morning while the rats in the control group were injected with an equal volume of citrate buffer. The STZ was freshly diluted in citrate buffer (0.1 mol/l, pH 4.0). After the injection, the HFS diet feeding was continued. Blood glucose and body weight were monitored 3 days after the STZ or citrate buffer injection, and once a week thereafter. […]
Prior to sacrifice, all rats were anesthetized and color Doppler sonography analysis of the right eye was performed. […] At least three measurements were recorded for each animal and the mean of the three readings was taken as the representative value. The resistivity index (RI) of the central retinal artery (CRA) was calculated by subtracting the diastolic velocity (DV) from the peak systolic velocity (SV) and then dividing by the systolic velocity [(SV − DV)/SV] […]

Another series concerns vWF. Description: Western blot of retinal homogenates, vWF. In kind it is in vivo, Sprague–Dawley rats. The note with it: diabetic rats, 40 mg/kg/day scutellarin, 8 weeks, compared to diabetic rats treated with or without Chit-DC. As for the experimental part: as §2
In series [3] the test system is retina of type II diabetic rats. Description: Retinal histopathology (hematoxylin and eosin), type 2 diabetic model. In kind it is in vivo, Sprague–Dawley rats. The note with it: 40 mg/kg/day scutellarin. As to the method:
as §2

For series [4] the following is noted: cited from earlier work.
A further series can be described thus: Solubility. In kind it is physicochemical.
The subject of series [5] is membranes over expressing several common transporters. Details: method as in PMID 27586020. The note with it: cited from earlier work.
A short description of series [6]: Pharmacokinetics study in vivo, single oral dose. The note with it: male, Sprague-Dawley, rat, rats, oral gavage, scutellarin dose 40 mg/kg, n = 6, mean ± SD; for half-life: plasma, po, 40 mg/kg. As to the method: Male Sprague–Dawley rats (weighing 220–250 g) were fasted for 12 h, but allowed water ad libitum the day before drug administration. Scutellarin, Chit-DC-Scu, and Chit-DC-VB12-Scu were resuspended in PBS and administered to rats (at the same scutellarin dose of 40 mg/kg) by oral gavage. Blood samples (0.2 ml) were collected from the tail vein of each rat before dosing and at 0.25, 0.5, 0.75, 1, 2, 3, 5, 8, 12, 24 h post-dosing. An equal volume of 0.9% saline solution was injected after each collection. Plasma samples were obtained by centrifugation at 10,000 rpm for 10 min immediately after blood collection and were stored at −20 °C until analysis. HPLC (Agilent 1100, USA) was used to determine the concentration of scutellarin in plasma.

A further series deals with VEGF. Description: Western blot of retinal homogenates, VEGF. The note with it: diabetic rats, 40 mg/kg/day scutellarin, 8 weeks, compared to diabetic rats treated with or without Chit-DC. In kind it is in vivo, Sprague–Dawley rats. As to the method:
as §2

Where [7] appears, read: T2D rats, intragastric, 8 weeks, compared to DM rats.

For `O=C(O)[C@H]1O[C@@H](Oc2cc3oc(-c4ccc(O)cc4)cc(=O)c3c(O)c2O)[C@H](O)[C@@H](O)[C@@H]1O` [Scu, 4′,5,6-trihydroxyflavone-7-O-glucuronide], the apparent permeability (Papp) at 120 min, 10 μg/ml in series [1] came to 0.32 ×10⁻⁶ cm/s. The “scutellarin absorbed by the small intestine” value in the series with Caco-2 cell monolayers is “about 1%”. Besides, the “expression of VEGFR2 in the retina” value with VEGFR2 was “downregulated”. Also, in [2] (setting [7]), the “retinal blood flow velocity” value is on record as “increased blood flow velocities” and the “retinal resistivity index (RI)” value is listed as “reduced retinal RI values”. The “blood flow velocity or RI in normal rats” value in [2] (normal (non-diabetic) rats) is recorded as “No significant changes in blood flow velocity or RI”. The “expression of vWF in the retina” value with vWF is “downregulated”. Besides, in series [3], the “retinal morphology (HE staining) in normal rats” value was “continuous with normal capillary structure”. In addition, the water solubility in [4] was 160 µg/mL (≈ 346 µM). Besides, the “solubility in distilled water” value in “Solubility” (distilled water) is on record as “poorly dissolved”. Besides, the “solubility in methanol and PBS solution” value in “Solubility” (methanol and PBS solution (pH7.2)) was “soluble”. In addition, the “increase of Papp(AP-BL)” value in [5] was 3.5 fold. Further, the half-life in [6] (read-out: T1/2(α) (converted)) is 0.405 ± 0.055 h. The half-life in [6] (read-out: T1/2(β) (converted)) was 1.88 ± 0.105 h. Further, in series [6] (plasma scutellarin), the concentration peaked (Cmax) at 129 ± 85.5 ng/mL and the Tmax worked out at 1.24 ± 0.025 h. Further, the “expression of VEGF in the retina” value in the series with VEGF was “downregulated”.
In the case of `CC(=O)OCC(=O)[C@@]12OC(C)(C)O[C@@H]1C[C@H]1[C@@H]3CCC4=CC(=O)C=C[C@]4(C)[C@@]3(F)[C@@H](O)C[C@@]12C` [triamcinolone acetonide acetate], the “water solubility of triamcinolone acetonide acetate” value in [4] (free drug versus loaded in deoxycholic acid-modified chitosan nanoparticles) was 300 µg/mL.
